Patent US20240124439A1, “Pyrido[2,3-D]Imidazole Derivatives and Their Use As Inhibitors of ITK for the Treatment of Skin Disease” (Pfizer Inc., priority 2020, published 2024)

Key:
[1] = biological target: IL-2-Inducible T-Cell Kinase (ITK) (Homo sapiens (Human), UniProt Q08881); assay: ITK enzyme assay (IL-2-inducible T-cell kinase activity); assay type: biochemical; settings: geometric mean of count n
Procedure: ITK activity was determined by measuring the effect of a test compound in an ITK enzyme assay.
1.0 M HEPES Buffer pH 7.5 solution was prepared as follows: 238.3 g HEPES free acid (Sigma) and 800 mL of water were combined, and the mixture was stirred until complete dissolution. The pH was adjusted to 7.5 via titration with 5N NaOH and the volume adjusted to 1000 mL. The solution was filtered and sterilized.
ITK assay buffer was prepared as follows: 50 mL of HPLC-grade water was treated with 2 mL of 1.0 M HEPES Buffer, 500 μL of 2% Gelatin (Sigma), 1.0 mL of aqueous MgCl2 solution (1.0 M), and 1.0 mL of aqueous glutathione solution (0.5 M), and the solution was mixed. The solution was brought to 99 mL in a graduated cylinder by addition of water and sterilized through a 0.2 μm filter. 0.1 mL of Brij-35™ Surfact-Amps™ Detergent Solution (10% w/v aqueous solution, ThermoFisher) and 1.0 mL of ATP (Teknova,100 mM) were added and the solution was mixed.
Preparation of 1.33× ITK enzyme solution was as follows: 49.99 mL of ITK assay buffer was treated with 4.1 μL of ITK enzyme (ITK FL (N-Flag and C-His tagged, […]) Lake Pharma, 0.25 mg/ml in a buffer containing 25 mM Tris pH 7.8, 150 mM NaCl, 10% glycerol and 2 mM TCEP) and the mixture was gently agitated. The resulting solution was stored on ice. 30 Minutes prior to use, the enzyme solution was removed from ice and equilibrated to RT by incubation in a RT water bath.
Preparation of 4× ITK substrate solution was as follows: 50 mL of ITK assay buffer was treated with 100 μL of BTK peptide (China Peptide Company, 2 mM stock solution in DMSO). The tube was capped, mixed by gently inverting the tube, and then stored on ice. 30 Minutes prior to use, the substrate solution was removed from ice and equilibrated to RT by incubation in a RT water bath.
At the time of assay, 7.5 μL of the 1.33× ITK enzyme solution was added to plate wells containing 0.1 μL of varying concentrations of test compound in DMSO. The plate was incubated 30 min at RT. The plate wells were each treated with 2.5 uL of the 4× ITK substrate solution and the plate was sealed (TopSeal™, Perkin Elmer). The plate was spun at 1000 rpm for 30 sec and then incubated for 60 min at RT. The seal was removed, and each well was treated with 10 μL of Stop/Detect Buffer (20 mM HEPES pH 7.5, 0.01% gelatin, 1 nM LANCE PT66 (Perkin Elmer), 16.5 μg/ml Surelight APC (Perkin Elmer), 10 mM EDTA, 250 mM NaCl). The plate was again covered and was spun at 1000 rpm for […]. The plate was allowed to incubate overnight at RT and in a closed carrier to reduce dehydration. The seal was removed, and the fluorescence was read with a plate reader with an excitation wavelength of […]. The concentrations and resulting effect values for the tested compound were plotted and the concentration of compound required for 50% effect (IC50) was determined with the four-parameter logistic dose response equation.

[2] = system: activated CD4+ human T-cells (IL-2); assay: IL-2 inhibition in supernatants from activated CD4+ human T-cells (cisbio HTRF); assay type: cell-based; settings: T-cell; CD3/CD28-activated CD4+ human T cells, ImmunoCult stimulation 20 to 24 hrs; geometric mean of count n
Procedure: IL-2 inhibition activity in supernatants from activated CD4+ human T-cells was determined by measuring the effect of a test compound on the activity using the cisbio HTRF™ technology.
Human CD4+ T cells were activated with CD3/CD28 for 3 days and expanded for an additional 4-6 days (7 to 9 days total). On day 0, frozen CD4+ T cells were thawed, treated with CD3/CD28 Dynabeads, and incubated at 37° C./5% CO2. On day 3, the beads were removed, and the cells were diluted to 5×10^5 cells/cm^2, placed in G-Rex10 flask, and incubated at 37° C./5% CO2. On day 7 to day 9 the cells were removed from the G-Rex flasks, counted and diluted back to 1×10^6 cells/ml in standard tissue culture flask.
The expanded CD4+ T-cells were centrifuged at 300×g for 10 minutes and resuspended to 0.5 million cells per ml (30,000 cells/well). 60 μl of CD4+ T cells were added per well to a 384 well plate containing 0.1 μL of varying concentrations of test compound in DMSO. The plates were incubated for 15 min at 37° C./5% CO2. 20 μl of diluted ImmunoCult™ (STEMCELL Technologies, 1:12.5 in T cell assay media) were added to all wells of the plate (1:50 final assay concentration). The plates were incubated for an additional 20 to 24 hrs at 37° C./5% CO2. The plates were centrifuged at 300×g for 10 minutes. 16 μL of supernatant was removed and combined with 4 μl of IL-2 HTRF Abs. (cisbio kit). Plates were incubated for 3 hours at RT and read with an EnVision plate reader at 665 nm and 615 nm wavelengths. The concentrations and resulting effect values for the tested compound were plotted and the concentration of compound required for 50% effect (IC50) was determined with the four-parameter logistic dose response equation.

Chain of IL-2-Inducible T-Cell Kinase (ITK) (Q08881 whole entry): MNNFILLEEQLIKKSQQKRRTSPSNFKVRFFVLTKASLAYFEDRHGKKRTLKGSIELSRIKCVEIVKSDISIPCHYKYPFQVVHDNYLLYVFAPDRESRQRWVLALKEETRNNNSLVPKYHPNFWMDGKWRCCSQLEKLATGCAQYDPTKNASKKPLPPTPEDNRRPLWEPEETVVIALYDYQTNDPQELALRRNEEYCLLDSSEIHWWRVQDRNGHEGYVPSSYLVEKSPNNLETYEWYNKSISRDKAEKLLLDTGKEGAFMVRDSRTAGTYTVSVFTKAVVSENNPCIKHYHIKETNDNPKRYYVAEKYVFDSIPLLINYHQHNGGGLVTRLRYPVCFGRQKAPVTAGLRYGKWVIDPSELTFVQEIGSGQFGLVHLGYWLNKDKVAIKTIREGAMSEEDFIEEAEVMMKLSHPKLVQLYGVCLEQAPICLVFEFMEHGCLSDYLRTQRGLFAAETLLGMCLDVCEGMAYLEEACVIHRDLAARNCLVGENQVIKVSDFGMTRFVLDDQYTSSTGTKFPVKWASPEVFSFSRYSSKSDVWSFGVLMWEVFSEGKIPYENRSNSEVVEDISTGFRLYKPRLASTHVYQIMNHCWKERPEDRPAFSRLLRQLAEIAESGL

IC50 [1] [nM] | IC50 [2] [nM] | Compound
117 | 279 | C[C@H](C(=O)N(C)c1cnc2nc(-c3n[nH]c4c3C[C@@H]3C[C@]3(C)C4)[nH]c2c1)n1cccn1 [Example 8, (R)-N-Methyl-N-(2-((4aS,5aR)-5a-methyl-1,4,4a,5,5a,6-hexahydrocyclopropa[f]indazol-3-yl)-1H-imidazo[4,5-b]pyridin-6-yl)-2-(1H-pyrazol-1-yl)propanamide]
24 | 147 | CC(C(=O)N(C)c1cnc2[nH]c(-c3n[nH]c4c3C[C@@H]3C[C@]3(C)C4)nc2c1)C1CCOCC1 (stereo partly drawn) [Example 9, N-Methyl-N-(2-((4aS,5aR)-5a-methyl-1,4,4a,5,5a,6-hexahydrocyclopropa[f]indazol-3-yl)-3H-imidazo[4,5-b]pyridin-6-yl)-2-(tetrahydro-2H-pyran-4-yl)propanamide]
72 | 534 | CN(C(=O)C(F)C1CCOCC1)c1cnc2nc(-c3n[nH]c4c3C[C@@H]3C[C@]3(C)C4)[nH]c2c1 (stereo partly drawn) [Example 11, 2-Fluoro-N-methyl-N-(2-((4aS,5aR)-5a-methyl-1,4,4a,5,5a,6-hexahydrocyclopropa[f]indazol-3-yl)-1H-imidazo[4,5-b]pyridin-6-yl)-2-(tetrahydro-2H-pyran-4-yl)acetamide]
76 | 447 | CN(C(=O)[C@H](F)C1CCOCC1)c1cnc2nc(-c3n[nH]c4c3C[C@@H]3C[C@]3(C)C4)[nH]c2c1 [Example 12, (R)-2-Fluoro-N-methyl-N-(2-((4aS,5aR)-5a-methyl-1,4,4a,5,5a,6-hexahydrocyclopropa[f]indazol-3-yl)-1H-imidazo[4,5-b]pyridin-6-yl)-2-(tetrahydro-2H-pyran-4-yl)acetamide]
102 | 559 | CN(C(=O)[C@@H](F)C1CCOCC1)c1cnc2nc(-c3n[nH]c4c3C[C@@H]3C[C@]3(C)C4)[nH]c2c1 [Example 13, (S)-2-Fluoro-N-methyl-N-(2-((4aS,5aR)-5a-methyl-1,4,4a,5,5a,6-hexahydrocyclopropa[f]indazol-3-yl)-1H-imidazo[4,5-b]pyridin-6-yl)-2-(tetrahydro-2H-pyran-4-yl)acetamide]
83 | 1230 | C[C@@H](C(=O)N(CCO)c1cnc2[nH]c(-c3n[nH]c4c3C[C@@H]3C[C@]3(C)C4)nc2c1)N1CCOCC1 [Example 15, (S)-N-(2-Hydroxyethyl)-N-(2-((4aS,5aR)-5a-methyl-1,4,4a,5,5a,6-hexahydrocyclopropa[f]indazol-3-yl)-3H-imidazo[4,5-b]pyridin-6-yl)-2-morpholinopropanamide]
231 | 1200 | CC(=O)N(C)c1cnc2[nH]c(-c3n[nH]c4c3CCC(C)(C)C4)nc2c1 [Example 20, N-(2-(6,6-Dimethyl-4,5,6,7-tetrahydro-1H-indazol-3-yl)-3H-imidazo[4,5-b]pyridin-6-yl)-N-methylacetamide]
38 | 193 | CCN(C(=O)[C@H](C)N1CCOCC1)c1cnc2nc(-c3n[nH]c4c3C[C@@H]3C[C@]3(C)C4)[nH]c2c1 [Example 21, (S)-N-Ethyl-N-(2-((4aS,5aR)-5a-methyl-1,4,4a,5,5a,6-hexahydrocyclopropa[f]indazol-3-yl)-1H-imidazo[4,5-b]pyridin-6-yl)-2-morpholinopropanamide]
130 | 709 | CC(=O)N(C)c1cnc2[nH]c(-c3n[nH]c4c3C[C@@H]3C[C@]3(C)C4)nc2c1 [Example 25, N-methyl-N-(2-((4aS,5aR)-5a-Methyl-1,4,4a,5,5a,6-hexahydrocyclopropa[f]indazol-3-yl)-1H-imidazo[4,5-b]pyridin-6-yl)acetamide]
61 | 481 | Cc1nc2[nH]c(-c3n[nH]c4c3C[C@@H]3C[C@]3(C)C4)nc2cc1N(C)C(=O)[C@H](C)N1CCOCC1 [Example 34, (S)-N-Methyl-N-(5-methyl-2-((4aS,5aR)-5a-methyl-1,4,4a,5,5a,6-hexahydrocyclopropa[f]indazol-3-yl)-3H-imidazo[4,5-b]pyridin-6-yl)-2-morpholinopropanamide]
143 | 462 | COc1nc2[nH]c(-c3n[nH]c4c3C[C@@H]3C[C@]3(C)C4)nc2cc1N(C)C(=O)CN1CCOCC1 [Example 35, N-(5-Methoxy-2-((4aS,5aR)-5a-methyl-1,4,4a,5,5a,6-hexahydrocyclopropa[f]indazol-3-yl)-3H-imidazo[4,5-b]pyridin-6-yl)-N-methyl-2-morpholinoacetamide]
152 | 464 | COCCOc1nc2[nH]c(-c3n[nH]c4c3C[C@@H]3C[C@]3(C)C4)nc2cc1N(C)C(=O)CN1CCOCC1 [Example 38, N-(5-(2-Methoxyethoxy)-2-((4aS,5aR)-5a-methyl-1,4,4a,5,5a,6-hexahydrocyclopropa[f]indazol-3-yl)-3H-imidazo[4,5-b]pyridin-6-yl)-N-methyl-2-morpholinoacetamide]
110 | 461 | COCCOc1nc2[nH]c(-c3n[nH]c4c3C[C@@H]3C[C@]3(C)C4)nc2cc1N(C)C(=O)[C@@H](C)N1CCOCC1 [Example 39, (R)-N-(5-(2-Methoxyethoxy)-2-((4aS,5aR)-5a-methyl-1,4,4a,5,5a,6-hexahydrocyclopropa[f]indazol-3-yl)-3H-imidazo[4,5-b]pyridin-6-yl)-N-methyl-2-morpholinopropanamide]
134 | 351 | C[C@@H](C(=O)N(C)c1cnc2[nH]c(-c3n[nH]c4c3C[C@@H]3C[C@]3(C)C4)nc2c1)N1CCCOCC1 [Example 43, (S)-N-Methyl-N-(2-((4aS,5aR)-5a-methyl-1,4,4a,5,5a,6-hexahydrocyclopropa[f]indazol-3-yl)-3H-imidazo[4,5-b]pyridin-6-yl)-2-(1,4-oxazepan-4-yl)propenamide]
101 | 226 | C[C@H](C(=O)N(C)c1cnc2[nH]c(-c3n[nH]c4c3C[C@@H]3C[C@]3(C)C4)nc2c1)N1CCCOCC1 [Example 44, (R)-N-Methyl-N-(2-((4aS,5aR)-5a-methyl-1,4,4a,5,5a,6-hexahydrocyclopropa[f]indazol-3-yl)-3H-imidazo[4,5-b]pyridin-6-yl)-2-(1,4-oxazepan-4-yl)propenamide]
25 | 117 | CN(C(=O)CC1CCCC1)c1cnc2nc(-c3n[nH]c4c3C[C@@H]3C[C@]3(C)C4)[nH]c2c1 [Example 45, 2-Cyclopentyl-N-methyl-N-(2-((4aS,5aR)-5a-methyl-1,4,4a,5,5a,6-hexahydrocyclopropa[f]indazol-3-yl)-1H-imidazo[4,5-b]pyridin-6-yl)acetamide]
